Key:
[1] = test system: maximal electroshock seizure (MES-induced seizure spread); test: Maximal electroshock seizure (MES) test, mouse; format: in vivo, mice
Experimental: Anticonvulsant activity was determined using the standard MES model for generalized tonic-clonic seizures (Swinyard E A, Woodhead J H, White H S, Franklin M R, In: Levy R H, Mattson R H, Meldrum B S, Penry J K, Dreifuss F E eds. Antiepileptic drugs. New York: Raven Press, 1989:85–102).
An electric stimulus of 0.2 sec duration, 60 Hz, 50 mA in mice, 150 mA in rats, was delivered via corneal electrodes primed with an electrolyte solution containing an anesthetic agent (0.5% tetracaine hydrochloride in 0.9% saline).
Mice or rats were randomly selected into control and test groups. The animals were dosed with vehicle or test compound, at varying concentrations. […] Rats were subjected to electrical stimulus at time intervals between 15 minutes and 4 hours following administration of test compound. Abolition of the hind limb tonic extensor component was an indication of the test compound's ability to inhibit MES-induced seizure spread.
The ED50 (the calculated dose required to block the hindlimb tonic-extensor component of the maximal electroshock seizure in 50% of the animals tested) was calculated. A probit analysis (Finney D J. Probit Analysis. Cambridge, England: Cambridge University Press, 1971) was used to calculate the ED50.
Following the mouse procedure described above, representative compounds of the instant invention were tested for biological activity in the mouse, with results as listed in Table 5. Mouse activity is listed as number of mice active/total number of mice tested @ time after administration of the test compound.

[2] = test system: maximal electroshock seizure (MES-induced seizure spread); test: Maximal electroshock seizure (MES) test, rat; format: in vivo, rats
Experimental: Anticonvulsant activity was determined using the standard MES model for generalized tonic-clonic seizures (Swinyard E A, Woodhead J H, White H S, Franklin M R, In: […], Meldrum […], Dreifuss F E eds. Antiepileptic drugs. New York: Raven Press, 1989:85-102). An electric stimulus of 0.2 sec duration, 60 Hz, 50 mA in mice, 150 mA in rats, was delivered via corneal electrodes primed with an electrolyte solution containing an anesthetic agent (0.5% tetracaine hydrochloride in 0.9% saline). Mice or rats were randomly selected into control and test groups. The animals were dosed with vehicle or test compound, at varying concentrations. Mice were subjected to the electrical stimulus at 30 minutes and 4 hours following administration of test compound. […] Abolition of the hind limb tonic extensor component was an indication of the test compound's ability to inhibit MES-induced seizure spread. […] A probit analysis (Finney D J. Probit Analysis. Cambridge, England: Cambridge University Press, 1971) was used to calculate the ED50. Following the rat procedure described above, representative compounds of the instant invention were tested for biological activity in the rat, with results as listed in Table 6 and 7. Rat activity is listed as number of rats active/total number of rats tested @ time after administration of the test compound.

[3] = 300 mg/kg, @ 0.5 hrs after administration
[4] = 100 mg/kg, @ 0.5 hrs after administration
[5] = 100 mg/kg, @ 4 hrs after administration
[6] = 300 mg/kg, @ 4 hrs after administration

`COC(=O)CCCNS(=O)(=O)OCC12OCC3OC(C)(C)OC3C1OC(C)(C)O2` (stereo not drawn) [Compound 8] was tested, and the “Mouse Activity (number of mice active/total number of mice tested)” value [1, 3] was 1/1 @ 0.5 hrs and the “Mouse Activity” value ([1]; dosage 30, 100 mg/kg) was “No activity”.

For `CC1(C)OC2COC3(COS(=O)(=O)NC(=O)O[Si](c4ccccc4)(c4ccccc4)c4ccccc4)OC(C)(C)OC3C2O1` (stereo not drawn) [Compound 13], the “Mouse Activity” value ([1]; dosage 30, 100, 300 mg/kg) was “No activity”, the “Rat Activity (oral) (number of rats active/total number of rats tested)” value ([2]; 30 mg/kg, @ 0.5 hrs) was 1/4 @ 0.5 hrs and the “Rat Activity (oral) (number of rats active/total number of rats tested)” value ([2]; 30 mg/kg, @ 1 hr) was 1/4 @ 1 hr.

With `CC(=O)[N-]S(=O)(=O)OC[C@@]12OC[C@H]3OC(C)(C)OC3[C@@H]1OC(C)(C)O2.[Na+]` (stereo partly drawn) [Compound 18, N-acetyl-2,3:4,5-bis-O-(1-methylethylidene)-β-D-fructopyranose sulfamate sodium salt] the “Mouse Activity (number of mice active/total number of mice tested)” value [1, 4] was 1/3 @ 0.5 hrs, the “Mouse Activity (number of mice active/total number of mice tested)” value [1, 5] was 2/3 @ 4 hrs and the “Mouse Activity (number of mice active/total number of mice tested)” value [1, 3] was 1/1 @ 0.5 hrs. The “Mouse Activity (number of mice active/total number of mice tested)” value [1, 6] was 1/1 @ 4 hrs, the “Mouse Activity” value ([1]; dosage 30 mg/kg) was “No activity” and the “Rat Activity (oral) (number of rats active/total number of rats tested)” value ([2]; 30 mg/kg, @ 0.25 hrs) was 1/4 @ 0.25 hrs. The “Rat Activity (oral) (number of rats active/total number of rats tested)” value ([2]; 30 mg/kg, @ 0.5 hrs) was 1/4 @ 0.5 hrs, the “Rat Activity (oral) (number of rats active/total number of rats tested)” value ([2]; 30 mg/kg, @ 2 hrs) was 1/4 @ 2 hrs and the “Rat Activity (oral) (number of rats active/total number of rats tested)” value ([2]; 30 mg/kg, @ 4 hrs) was 3/4 @ 4 hrs.

With `CC(C)Oc1ccccc1N1CCN(S(=O)(=O)OCC23OCC4OC(C)(C)OC4C2OC(C)(C)O3)CC1` (stereo not drawn) [Compound 39] the “Mouse Activity” value ([1]; dosage 30, 100, 300 mg/kg) was “No activity” and the “Rat Activity (oral) (number of rats active/total number of rats tested)” value ([2]; 30 mg/kg, @ 4 hrs) was 1/4 @ 4 hrs.

With `CC1(C)OC2COC3(COS(=O)(=O)N[Si](c4ccccc4)(c4ccccc4)c4ccccc4)OC(C)(C)OC3C2O1` (stereo not drawn) [Compound 6] the “Mouse Activity” value ([1]; dosage 30, 100, 300 mg/kg) was “No activity”.

In the case of `CCC(=O)[N-]S(=O)(=O)OCC12OCC3OC(C)(C)OC3C1OC(C)(C)O2.[Na+]` (stereo not drawn) [Compound 19], the “Mouse Activity (number of mice active/total number of mice tested)” value [1, 4] is reported as 0/3 @ 0.5 hrs, the “Mouse Activity (number of mice active/total number of mice tested)” value [1, 5] is reported as 3/3 @ 4 hrs and the “Mouse Activity (number of mice active/total number of mice tested)” value [1, 3] is reported as 1/1 @ 0.5 hrs. The “Mouse Activity (number of mice active/total number of mice tested)” value [1, 6] was 1/1 @ 4 hrs, the “Mouse Activity” value ([1]; dosage 30 mg/kg) was “No activity” and the ED50 ([2]; @ 4 hrs) was 11.22 @ 4 hrs m/k. For the same molecule, the “Rat Activity (oral) (number of rats active/total number of rats tested)” value ([2]; 30 mg/kg, @ 0.25 hrs) was 1/4 @ 0.25 hrs, the “Rat Activity (oral) (number of rats active/total number of rats tested)” value ([2]; 30 mg/kg, @ 0.5 hrs) was 0/4 @ 0.5 hrs and the “Rat Activity (oral) (number of rats active/total number of rats tested)” value ([2]; 30 mg/kg, @ 1 hr) was 1/4 @ 1 hr. For the same molecule, the “Rat Activity (oral) (number of rats active/total number of rats tested)” value ([2]; 30 mg/kg, @ 2 hrs) was 4/4 @ 2 hrs and the “Rat Activity (oral) (number of rats active/total number of rats tested)” value ([2]; 30 mg/kg, @ 4 hrs) was 4/4 @ 4 hrs.

`CC1(C)OC2[C@@H](CO[C@@]3(COS(=O)(=O)NC(=O)OCc4ccccc4)OC(C)(C)O[C@@H]23)O1` (stereo partly drawn) [Compound 15, N-benzyloxycarbonyl-2,3:4,5-bis-O-(1-methylethylidene)-β-D-fructopyranose sulfamate] was tested, and the “Mouse Activity (number of mice active/total number of mice tested)” value ([1]; 100 mg/kg, @ 1 hr after administration) was 3/3 @ 1 hr, the “Mouse Activity (number of mice active/total number of mice tested)” value [1, 5] was 2/3 @ 4 hrs and the “Mouse Activity (number of mice active/total number of mice tested)” value [1, 3] was 1/1 @ 0.5 hrs. The “Mouse Activity (number of mice active/total number of mice tested)” value [1, 6] was 1/1 @ 4 hrs and the “Mouse Activity” value ([1]; dosage 30 mg/kg) was “No activity”.

With `C=CCNS(=O)(=O)OC[C@@]12OC[C@H]3OC(C)(C)OC3[C@@H]1OC(C)(C)O2` (stereo partly drawn) [Compound 2, N-allyl-2,3:4,5-bis-O-(1-methylethylidene)-β-D-fructopyranose sulfamate] the ED50 ([2]; @ 2 hrs) was 11.89 @ 2 hrs m/k, the “Rat Activity (oral) (number of rats active/total number of rats tested)” value ([2]; 8 mg/kg, @ 2 hrs) was 3/4 @ 2 hrs and the “Rat Activity (oral) (number of rats active/total number of rats tested)” value ([2]; 8 mg/kg, @ 4 hrs) was 2/4 @ 4 hrs. The “Rat Activity (oral) (number of rats active/total number of rats tested)” value ([2]; 8 mg/kg, @ 6 hrs) was 1/4 @ 6 hrs, the “Rat Activity (oral) (number of rats active/total number of rats tested)” value ([2]; 8 mg/kg, @ 8 hrs) was 1/4 @ 8 hrs and the “Rat Activity (oral) (number of rats active/total number of rats tested)” value ([2]; 20 mg/kg, @ 0.5 hrs) was 1/4 @ 0.5 hrs. For the same molecule, the “Rat Activity (oral) (number of rats active/total number of rats tested)” value ([2]; 20 mg/kg, @ 2 hrs) was 2/2 @ 2 hrs, the “Rat Activity (oral) (number of rats active/total number of rats tested)” value ([2]; 20 mg/kg, @ 4 hrs) was 1/2 @ 4 hrs and the “Rat Activity (oral) (number of rats active/total number of rats tested)” value ([2]; 20 mg/kg, @ 6 hrs) was 1/2 @ 6 hrs. The “Rat Activity (oral) (number of rats active/total number of rats tested)” value ([2]; 200 mg/kg, @ 1 hr) was 3/8 @ 1 hr, the “Rat Activity (oral) (number of rats active/total number of rats tested)” value ([2]; 200 mg/kg, @ 2 hrs) was 4/8 @ 2 hrs and the “Rat Activity (oral) (number of rats active/total number of rats tested)” value ([2]; 200 mg/kg, @ 4 hrs) was 2/8 @ 4 hrs. For the same molecule, the “Rat Activity (oral) (number of rats active/total number of rats tested)” value ([2]; 200 mg/kg, @ 6 hrs) was 1/8 @ 6 hrs.

For `CC1(C)O[C@@H]2[C@@H](CO[C@@]3(COS(=O)(=O)[N-]C(=O)OCc4ccccc4)OC(C)(C)O[C@@H]23)O1.[Na+]` [Compound 17, N-(benzyloxy-carbonyl)-2,3:4,5-bis-O-(1-methylethylidene)-β-D-fructopyranose sulfamate sodium salt], the ED50 ([2]; @ 4 hrs) was 10.37 @ 4 hrs, m/k, the ED50 ([2]; @ 6 hrs) was 3.26 @ 6 hrs m/k and the “Rat Activity (oral) (number of rats active/total number of rats tested)” value ([2]; 30 mg/kg, @ 0.25 hrs) was 1/4 @ 0.25 hrs. The “Rat Activity (oral) (number of rats active/total number of rats tested)” value ([2]; 30 mg/kg, @ 0.5 hrs) was 2/4 @ 0.5 hrs, the “Rat Activity (oral) (number of rats active/total number of rats tested)” value ([2]; 30 mg/kg, @ 1 hr) was 1/4 @ 1 hr and the “Rat Activity (oral) (number of rats active/total number of rats tested)” value ([2]; 30 mg/kg, @ 2 hrs) was 4/4 @ 2 hrs. The “Rat Activity (oral) (number of rats active/total number of rats tested)” value ([2]; 30 mg/kg, @ 4 hrs) was 4/4 @ 4 hrs.

For `CN(O)S(=O)(=O)OCC12OCC3OC(C)(C)OC3C1OC(C)(C)O2` (stereo not drawn) [Compound 12], the “Mouse Activity” value ([1]; dosage 30, 100, 300 mg/kg) was “No activity” and the “Rat Activity (oral) (number of rats active/total number of rats tested)” value ([2]; 15 mg/kg, @ 1 hr) was 1/4 @ 1 hr.

In the case of `COC(=O)CNS(=O)(=O)OCC12OCC3OC(C)(C)OC3C1OC(C)(C)O2` (stereo not drawn) [Compound 5], the “Mouse Activity” value ([1]; dosage 30, 100, 300 mg/kg) is reported as “No activity”, the ED50 ([2]; @ 2 hrs) is reported as >80 @ 2 hrs m/k and the “Rat Activity (oral) (number of rats active/total number of rats tested)” value ([2]; 30 mg/kg, @ 2 hrs) is reported as 3/4 @ 2 hrs. For the same molecule, the “Rat Activity (oral) (number of rats active/total number of rats tested)” value ([2]; 30 mg/kg, @ 4 hrs) was 1/4 @ 4 hrs.

For `CC1(C)OC2[C@@H](CO[C@@]3(COS(=O)(=O)NO)OC(C)(C)O[C@@H]23)O1` (stereo partly drawn) [Compound 9, N-hydroxy-2,3:4,5-bis-O-(1-methylethylidene)-β-D-fructopyranose sulfamate], the “Mouse Activity (number of mice active/total number of mice tested)” value [1, 6] was 1/1 @ 4 hrs, the “Mouse Activity” value ([1]; dosage 30 mg/kg) was “No activity” and the ED50 ([2]; @ 4 hrs) was 68.72 @ 4 hrs m/k. For the same molecule, the “Rat Activity (oral) (number of rats active/total number of rats tested)” value ([2]; 30 mg/kg, @ 1 hr) was 1/4 @ 1 hr, the “Rat Activity (oral) (number of rats active/total number of rats tested)” value ([2]; 30 mg/kg, @ 2 hrs) was 2/4 @ 2 hrs and the “Rat Activity (oral) (number of rats active/total number of rats tested)” value ([2]; 30 mg/kg, @ 4 hrs) was 1/4 @ 4 hrs.

With `CCOC(=O)CCNS(=O)(=O)OCC12OCC3OC(C)(C)OC3C1OC(C)(C)O2` (stereo not drawn) [Compound 4] the “Mouse Activity” value ([1]; dosage 30, 100, 300 mg/kg) was “No Activity” and the “Rat Activity (oral) (number of rats active/total number of rats tested)” value ([2]; 30 mg/kg, @ 1 hr) was 1/4 @ 1 hr.

`CONS(=O)(=O)OCC12OCC3OC(C)(C)OC3C1OC(C)(C)O2` (stereo not drawn) [Compound 10] was tested, and the “Mouse Activity (number of mice active/total number of mice tested)” value [1, 3] was 1/1 @ 0.5 hrs, the “Mouse Activity (number of mice active/total number of mice tested)” value [1, 6] was 1/1 @ 4 hrs and the “Mouse Activity” value ([1]; dosage 30, 100 mg/kg) was “No activity”.

`CC1(C)OC2COC3(COS(=O)(=O)NCCC(=O)O)OC(C)(C)OC3C2O1` (stereo not drawn) [Compound 35] was tested, and the “Mouse Activity (number of mice active/total number of mice tested)” value [1, 3] was 1/1 @ 0.5 hrs and the “Mouse Activity” value ([1]; dosage 30, 100 mg/kg) was “No Activity”.

Reference: patent publication US7060725B2, “Substituted sulfamate anticonvulsant derivatives” (Janssen Pharmaceutica N.V., priority 2002, dated 2006)
